From patent EP1397353B1, “2-(2,6-DISUBSTITUTED PHENYL)-4-ARYL-5-ALKYL-1,3-OXAZOLINE COMPOUNDS USEFUL AS INSECTICIDES AND ACARICIDES” (Dow AgroSciences LLC, priority 2001, dated 2003) come the findings set out here.

What all share (assay type): in vivo
In assay [1] the test system is tobacco budworm (Heliothis virescens). Kind of assay: Insecticidal test for tobacco budworm (leaf-dip, cotton cotyledon discs). The note with it: Heliothis virescens, 120 h, dipped cotton cotyledon discs, 2nd instar larvae, 5 days, rating of % Control, read-out: TBW, activity at 400 ppm against tobacco budworm. The procedure: (§1) Insecticidal test for tobacco budworm (Heliothis virescens), beet armyworm (Spodoptera exigua), and cabbage looper (Trichoplusia ni).
(§2) To prepare test solution, the test compound was formulated at 400 ppm in 7.5 mL of 2 acetone: 1 tap water. 250 µL of the test solution was pipetted upon the surface of 8 mL of lepidopteran diet (modified Shorey) contained in each of five one-ounce plastic cups (one cup = 1 replication). […] After airdrying, the treated leaf discs were placed individually into one-ounce plastic cups. Each dried, treated cotton cotyledon disc was infested with a 2nd instar tobacco budworm larva, and each cabbage leaf disc was infested with a 2nd instar cabbage looper larva. Cups containing the treated substrates and larvae were capped and then held in a growth chamber at 25 °C, 50-55% RH, and 14 hr light: 10 hr dark for 5 days.

The test system of assay [2] is cabbage looper (Trichoplusia ni). Kind of assay: Insecticidal test for cabbage looper (leaf-dip, cabbage leaf discs). Conditions: dipped cabbage leaf discs, 2nd instar larvae, 5 days, rating of % Control; for pest or weed control at 400 ppm: Trichoplusia ni, foliar, 120 h, read-out: CL, activity at 400 ppm against cabbage looper. The procedure: as §1, §2
Assay [3] has as its system two-spotted spider mite (Tetranychus urticae). Kind of assay: Insecticidal test for two-spotted spider mite, ovicide method. Conditions: ovicide method, cotton leaf discs, 6 days, rating of % Control; for pest or weed control: Tetranychus urticae, foliar, 144 h, read-out: SM, activity against two-spotted spider mite. On the procedure: Insecticidal test for two-spotted spider mite (Tetranychus urticae)
Ten adult female two-spotted spider mites were placed on eight 2.2 cm leaf discs of cotton leaf, allowed to oviposit over 24 hours, and thereafter removed. […] Discs were placed on an agar substrate and held at 24 °C and 90% RH for 6 days.

Assay [4] has as its system Sweetpotato Whitefly (Bemisia tabacia). The assay can be described thus: Insecticidal test for sweetpotato whitefly (spray on cotton plants). The note with it: 200 ppm spray, large nymphs counted after 13 days, rating of % Control; for pest or weed control at 200 ppm: Bemisia, 312 h, read-out: WF, activity at 200 ppm against whitefly. On the procedure:
Insecticidal test for Sweetpotato Whitefly (Bemisia tabacia)
Four mg of each test compound were dissolved by adding 4 mL of a 90:10 acetone:ethanol solvent mixture to the vial containing the sample compound. This solution was added to 16 mL of water containing 0.05% Tween 20 surfactant to produce 20 mL of a 200 ppm spray solution.
Five-week-old cotton plants reared in a greenhouse were stripped of all foliage except for the two uppermost true leaves that were greater than 5 cm in diameter. These plants were then placed into a laboratory colony of whiteflies for two days for oviposition by the colony females. All whiteflies were then removed from the test plants with pressurized air. The spray solution was then applied to the test plants with a hand-held syringe fitted with hollow cone nozzle. One mL spray solution was applied to each leaf top and bottom for a total of 4 mL per plant. Four replications of each test compound utilized a total of 16 mL spray solution. Plants were air dried and then placed in a holding chamber (28 °C and 60% RH) for 13 days. Compound efficacy was evaluated by counting, under an illuminated magnifying glass, the number of large nymphs (3rd-4th instar) per leaf
Percent control based on reduction of large nymphs of a test compound compared to solution-only (no test compound) sprayed plants is reported in Table 1-8.

Assay [5] has as its system beet armyworm (Spodoptera exigua). Kind of assay: Insecticidal test for beet armyworm (treated lepidopteran diet). Conditions: 2nd instar larvae, 5 days, rating of % Control; for pest or weed control at 400 ppm: Spodoptera exigua, 120 h, read-out: BAW, activity at 400 ppm against beet armyworm. On the procedure:
as §1, §2

`Cc1cc(-c2ccc(C(F)(F)F)cc2)ccc1[C@H]1N=C(c2c(F)cccc2F)O[C@H]1C` (mixture of isomers) [Compound 39, (4R,5S)- and (4S,5R)-2-(2,6-difluorophenyl)-5-methyl-4-[3-methyl-4'-(trifluoromethyl)-1,1'-biphenyl-4-yl]-4,5-dihydro-1,3-oxazole]: the pest or weed control at 400 ppm in assay [1], in assay [2] and in assay [5] was 90 to 100% in each case. For the same compound, the pest or weed control in assay [3] is 80 to 89%. Further, the pest or weed control at 200 ppm in assay [4] was under 50%.
Consider `Cc1cc(-c2ccc(C(F)(F)F)cc2)ccc1[C@@H]1N=C(c2c(F)cccc2F)O[C@H]1C` (mixture of isomers) [Compound 43, (4S,5S) - and (4R,5R)-2-(2,6-difluorophenyl)-5-methyl-4-[3-methyl-4'-(trifluoromethyl)-1,1'-biphenyl-4-yl]-4,5-dihydro-1,3-oxazole], for which the pest or weed control at 400 ppm in assay [1], in assay [2] and in assay [5] was 90 to 100% in each case. In assay [4], the pest or weed control at 200 ppm is under 50%.
As for `Cc1cc(-c2ccc(OC(F)(F)F)cc2)ccc1[C@H]1N=C(c2c(F)cccc2F)O[C@H]1C` (mixture of isomers) [Compound 40, (4R,5S)- and (4S,5R)-2-(2,6-difluorophenyl)-5-methyl-4[3-methyl-4'-(trifluoromethoxy)-1,1'-biphenyl-4-yl]-4,5-dihydro-1,3-oxazole], the pest or weed control at 400 ppm in assay [1], in assay [2] and in assay [5] was 90 to 100% in each case. Further, the pest or weed control in assay [3] fell in the range of 80 to 89%. For the same compound, the pest or weed control at 200 ppm in assay [4] was under 50%.
On to `CC(C)c1ccc(-c2ccc([C@@H]3N=C(c4c(F)cccc4F)O[C@@H]3C)cc2)cc1` (mixture of isomers) [Compound 7, (4S,5R)- and (4R,5S)-2-(2,6-difluorophenyl)-4-(4'-isopropyl-1,1'-biphenyl-4-yl)-5-methyl-4,5-dihydro-1,3-oxazole], for which the pest or weed control at 400 ppm in assay [1], in assay [2] and in assay [5] was 90 to 100% each time. For the same compound, in assay [3], the pest or weed control is 60 to 69%. Besides, the pest or weed control at 200 ppm in assay [4] is 90 to 100%.
For `Cc1cc(Br)ccc1[C@H]1N=C(c2c(F)cccc2F)O[C@H]1C` (mixture of isomers) [Compound 38, (4R,5S)- and (4S,5R)-4-(4-bromo-2-methylphenyl)-2-(2,6-difluorophenyl)-5-methyl-4,5-dihydro-1,3-oxazole], the pest or weed control in assay [3] lay in the range of 60 to 69%. In assay [4], the pest or weed control at 200 ppm is under 50%.
In the case of `C[C@H]1OC(c2c(F)cccc2F)=N[C@H]1c1ccc(-c2ccc(OC(F)(F)F)cc2)cc1` (stereo in doubt) [Compound 49, (4S,5R)-2-(2,6-difluorophenyl)-5-methyl-4-[4'-(trifluoromethoxy)-1,1'-biphenyl-4-yl]-4,5-dihydro-1,3-oxazole], the “CL, activity at 400 ppm against cabbage looper” value in assay [2] is on record as “A (90-100)”. For the same compound, the “SM, activity at 2.5 ppm against two-spotted spider mite” value in assay [3] is “A (90-100)”. The “WF, activity at 200 ppm against whitefly” value in assay [4] is on record as “B (80-89)”. The “BAW, activity at 400 ppm against beet armyworm” value in assay [5] is listed as “A (90-100)”.
With `C[C@@H]1OC(c2c(F)cccc2F)=N[C@H]1c1ccc(-c2ccc(C(F)(F)F)cc2F)cc1` (mixture of isomers) [Compound 32, (4S,5S)- and (4R,5R)-2-(2,6-difluorophenyl)-4-[2'-fluoro-4'-(trifluoromethyl)-1,1'-biphenyl-4-yl]-5-methyl-4,5-dihydro-1,3-oxazole], the pest or weed control at 400 ppm in assay [1], in assay [2] and in assay [5] was 90 to 100% throughout. In assay [3], the pest or weed control lay within 70 to 79%. Also, the pest or weed control at 200 ppm in assay [4] is under 50%.
